The EC50 is the concentration at which the effect is half-maximal. As a reminder, the efflux ratio is the permeability from basolateral to apical divided by that in the opposite direction, in the common usage. Broadly, the IC50 is the midpoint of a concentration-inhibition curve. Lower therefore signals inhibition by little substance.

Data on 3 molecules can be found in patent US11795173B1, “Substituted pyridines as PARP1 inhibitors” (Xinthera, Inc., priority 2022, dated 2023).

Data set [1] concerns DLD-1 parental cells. Briefly: Cell growth inhibition assay (CellTiter-Glo), DLD-1 parental. The class given is cell-based. As to conditions: Homo sapiens, DLD-1, 168 h; cell viability, CellTiter Glo 2.0, 7 days. An excerpt:
(§1) The objective of this study is to evaluate the effect of compound disclosed herein on cell proliferation through the cell viability assay in DLD-1 BRCA2(−/−) and parental isogenic pair and MDA-MB-436 (mutated BRCA1) cell lines. The CellTiter-Glo (CTG) based cell viability assay is designed to determine the number of viable cells in the culture because of compound effect, by quantifying ATP, which indicates the presence of metabolically active cells.
(§2) DLD-1 BRCA2(−/−) and parental isogenic pair were cultured in RPMI 1640 supplemented with 10% fetal bovine serum (FBS), and MDA-MB-436 cells were cultured in DMEM supplemented with 10% FBS. Both are culture at 37° C. with 5% CO2. Invention compounds were distributed to the 384 well plate (Corning, 3764) using Echo acoustic liquid handler to form a 1:3 serially diluted final concentration with top dose of 10 or 30 μM. The cells were seeded into the plate in the density of 50 cells/well (DLD-1 parental), 200 cells/well (DLD-1 BRCA2−/−), or 500 cells/well (MDA-MB-436). After a short spun, the cells were cultured in a well moisturized incubator at 37° C. with 5% CO2 for 7 days without disturbance. The cell viability was measured by CellTiter Glo 2.0 assay kit (Promega, G9243), and growth inhibition rate was calculated and plotted against final compound concentration, and the data were fitted in Xfit to generate IC50.
A general note: In ATP-based viability assays light output follows the ATP content of the culture.

Data set [2] has as its target BCRP (Homo sapiens (Human), UniProt Q9UNQ0). Kind of data set: In vitro human transporter efflux, MDCKII cells expressing BCRP. The data set is classed as in vitro ADME. As to conditions: for Papp A→B at 2 h, 10 μM: pH 7.4, apical-to-basolateral, pH7.4, read-out: BCRP Papp AB; for Papp A→B at 2 h, 10 μM / Papp B→A at 2 h, 10 μM: 2-hour incubation; for Papp B→A at 2 h, 10 μM: pH 7.4, basolateral-to-apical, pH7.4, read-out: BCRP Papp BA; for efflux ratio at 2 h, 10 μM: pH 7.4, efflux ratio Papp BA/Papp AB. As to the method: (§3) Madin-Darby canine kidney (MDCKII) cells expressing either MDR1 or BCRP were seeded onto Corning HTS Transwell® 96-well polycarbonate permeable (0.4 μm pore) supports at a density of 545,000 cells/cm^2. Cells were incubated for 4-8 days prior to assay, and monolayer integrity was assessed by measuring transepithelial electrical resistance (TEER). […] The final organic solvent concentration was 0.5% (v/v). Bidirectional (apical-to-basolateral and basolateral-to-apical) flux of the test and reference compounds was determined over a 2-hour incubation at 37° C. and 5% CO2 with a relative humidity of 95%. At the end of the incubation, samples from the apical and basolateral side were taken and then precipitated with acetonitrile containing internal standard. After centrifugation at 3200×g, supernatants were diluted 1:1 (v/v) with water and subjected to analysis via HPLC-MS/MS.
(§4) Apparent permeability (Papp, ×10^−6 cm/s) was calculated for all transport assays using the following equation: […]
(§5) Efflux ratio was determined by calculating the ratio of the Papp in the basolateral-to-apical direction to the Papp in the apical-to-basolateral direction using the following equation: […]

The target in data set [3] is MDR1 (Homo sapiens (Human), UniProt P08183). Kind of data set: In vitro human transporter efflux, MDCKII cells expressing MDR1. As to conditions: for Papp A→B at 2 h, 10 μM: MDCK-MDR1, pH 7.4, apical-to-basolateral, pH7.4, read-out: MDCK-MDR1 Papp AB; for Papp A→B at 2 h, 10 μM / Papp B→A at 2 h, 10 μM: 2-hour incubation; for Papp B→A at 2 h, 10 μM: MDCK-MDR1, pH 7.4, basolateral-to-apical, pH7.4, read-out: MDCK-MDR1 Papp BA; for efflux ratio at 2 h, 10 μM: MDCK-MDR1, pH 7.4, efflux ratio Papp BA/Papp AB. The class given is in vitro ADME. Here is the method: as §3, §4, §5

Data set [4] concerns DLD-1 BRCA2(−/−) cells. Kind of data set: Cell growth inhibition assay (CellTiter-Glo), DLD-1 BRCA2(−/−). The data set is classed as cell-based. As to conditions: Homo sapiens, DLD-1, 168 h; cell viability, CellTiter Glo 2.0, 7 days. As to the method:
The objective of this study is to evaluate the effect of compound disclosed herein on cell proliferation through the cell viability assay in DLD-1 BRCA2(−/−) and parental isogenic pair and MDA-MB-436 (mutated BRCA1) cell lines.
as §2, with “Invention compounds were distributed to the 384 well plate (Corning, 3764) using Echo acoustic liquid handler to form a 1:3 serially diluted final concentration with top dose of 10 or 30 μM.” left out

Data set [5] has as its system MDA-MB-436 (mutated BRCA1) cells. Briefly: Cell growth inhibition assay (CellTiter-Glo), MDA-MB-436. The class given is cell-based. The following applies: Homo sapiens, MDA-MB-436, 168 h; cell viability, CellTiter Glo 2.0, 7 days.
Text: as §1, §2

The nature of data set [6]: HLM stability, predicted human hepatic clearance. The class given is in vitro ADME. The following applies: well-stirred model, 1 μM, 0.5 mg/mL microsomal protein, NADPH. Here is the method: Working stocks of individual test articles were prepared at a concentration of 100 μM by diluting 10 mM stocks prepared in DMSO 100-fold (v:v) into ACN. Thawed hepatic microsomes were suspended in 100 mM potassium phosphate buffer, pH 7.4 to a microsomal protein concentration of 0.562 mg/mL. Diluted microsomes were combined with a solution of 10 mM NADPH, and the mixture was pre-warmed to 37° C. for 8 min. Reactions were initiated by addition of the test article working stocks to achieve a final test article concentration of 1 μM. Final microsomal protein and NADPH concentrations were 0.5 mg/mL and 1 mM, respectively. Incubations containing NADPH were run in duplicate. Test article losses mediated by non-CYP mechanisms were evaluated in a parallel set of incubations run in the absence of NADPH. Incubations lacking NADPH consisted of 1 replicate per test article. Following incubation in a 37° C. water bath, aliquots of individual reactions were quenched with cold ACN containing internal standards at […], 15-, 30-, 60-, 90-, and 120-min. Precipitated protein was pelleted via refrigerated centrifugation. Supernatants were diluted into an equal volume of pure water and mixed well prior to analysis via LC-MS/MS. In vitro intrinsic clearances (CLint) in μL/min/mg were determined for each incubation from calculated in vitro half-lives determined using a standard log-linear regression approach. In vitro CLint values were scaled up using the following physiological scaling factors: 40 mg microsomal protein/g human liver and 25.7 g human liver/kg body weight.

Data set [7] in a line: hHEP stability, predicted human hepatic clearance. The data set is classed as in vitro ADME. As to conditions: well-stirred model, 0.5×10^6 viable cells/mL. Here is the method: Working stocks of individual test articles were prepared at concentrations of 100 μM by diluting 10 mM stocks prepared in DMSO 100-fold (v:v) into ACN/H2O (50/50, v:v). Human cryopreserved hepatocytes were thawed in a 37° C. water bath in <2 min., suspended in thawing media, and then centrifuged at 100×g for 10 min. Thawing media was aspirated, and pelleted hepatocytes were resuspended into incubation media at 1.5×10^6 cells/mL. Cell viability was determined using an Acridine Orange/Propidium Iodine stain, and hepatocytes were further diluted with incubation media to 0.5×10^6 viable cells/mL. Hepatocyte aliquots of 198 μL were added to wells of a 96-well plate, and test article incubations were initiated by the addition of 2 μL of 100 μM working stocks. Plates were incubated at 37° C. in a 5% CO2 atmosphere at 95% relative humidity on an orbital shaker at 300 rpm. Incubations were performed in duplicate. Following incubation, aliquots of individual reactions were terminated by addition of ACN containing internal standards at 0, 30-, 60-, 90-, 120-, and 240-min. Precipitated protein was pelleted via refrigerated centrifugation. Supernatants were diluted into an equal volume of pure water and mixed well prior to analysis via LC-MS/MS. In vitro intrinsic clearances (CLint) in μL/min/10^6 cells were determined for each incubation from calculated in vitro half-lives determined using a standard log-linear regression approach. In vitro CLint values were scaled up using the following physiological scaling factors: 99×10^6 cells/g human liver and 25.7 g human liver/kg body weight.

Data set [8] concerns the target PARP1 (Homo sapiens (Human), UniProt P09874). Kind of data set: Biochemical fluorescence polarization (FP) assay, PARPi-FL displacement, PARP1. The data set is classed as binding. The following applies: 20 nM protein, 3 nM PARPi-FL, 4 h at room temperature. As to the method:
(§6) To characterize our compounds, we utilized an assay measuring the displacement of a commercially available fluorescently labeled PARP 1/2 inhibitor (PARPi-FL, Tocris Biosciences, #6461) as exemplified in assays performed in WO2014/064149 and WO2021/013735A1. The assay was performed utilizing the following method: Compounds were dissolved in DMSO an Echo550 liquid handler was utilized to make serial dilations in the desired concentration range in Optiplate-384F plates. 100% DMSO was used for the high (with protein) and low (without protein) control samples. 20 nL of compound or DMSO alone was added to individual assay plate wells. […] The PARPi-FL was then added at a final concentration of 3 nM. The assay plate is centrifuged at 1000 rpm for 1 min and incubated for 4 h at room temperature. […] XLFit (equation 201) is used to calculate a reported IC50 for each compound.
For orientation: Fluorescence polarisation rises when a labelled molecule tumbles more slowly, as on binding a larger partner.

Data set [9] deals with PARP2 (Homo sapiens (Human), UniProt Q9UGN5). Briefly: Biochemical fluorescence polarization (FP) assay, PARPi-FL displacement, PARP2. The class given is binding. The following applies: 20 nM protein, 3 nM PARPi-FL, 4 h at room temperature. As to the method: as §6
PARP2, sequence (Q9UGN5 whole entry): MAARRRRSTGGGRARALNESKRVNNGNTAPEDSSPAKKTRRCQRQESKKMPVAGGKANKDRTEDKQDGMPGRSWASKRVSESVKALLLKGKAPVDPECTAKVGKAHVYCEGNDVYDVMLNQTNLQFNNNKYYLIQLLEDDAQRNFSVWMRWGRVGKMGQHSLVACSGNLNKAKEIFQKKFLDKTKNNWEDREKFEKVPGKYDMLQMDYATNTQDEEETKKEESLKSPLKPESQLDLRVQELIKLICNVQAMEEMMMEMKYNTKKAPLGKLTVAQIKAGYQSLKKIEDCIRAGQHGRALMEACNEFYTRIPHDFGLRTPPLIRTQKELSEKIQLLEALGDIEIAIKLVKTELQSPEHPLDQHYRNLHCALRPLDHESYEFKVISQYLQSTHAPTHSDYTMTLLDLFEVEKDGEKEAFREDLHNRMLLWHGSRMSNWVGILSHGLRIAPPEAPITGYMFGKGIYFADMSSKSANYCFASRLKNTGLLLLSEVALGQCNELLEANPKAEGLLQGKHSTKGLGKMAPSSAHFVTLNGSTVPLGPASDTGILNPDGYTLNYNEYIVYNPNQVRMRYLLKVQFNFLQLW

MDR1, sequence (P08183 whole entry): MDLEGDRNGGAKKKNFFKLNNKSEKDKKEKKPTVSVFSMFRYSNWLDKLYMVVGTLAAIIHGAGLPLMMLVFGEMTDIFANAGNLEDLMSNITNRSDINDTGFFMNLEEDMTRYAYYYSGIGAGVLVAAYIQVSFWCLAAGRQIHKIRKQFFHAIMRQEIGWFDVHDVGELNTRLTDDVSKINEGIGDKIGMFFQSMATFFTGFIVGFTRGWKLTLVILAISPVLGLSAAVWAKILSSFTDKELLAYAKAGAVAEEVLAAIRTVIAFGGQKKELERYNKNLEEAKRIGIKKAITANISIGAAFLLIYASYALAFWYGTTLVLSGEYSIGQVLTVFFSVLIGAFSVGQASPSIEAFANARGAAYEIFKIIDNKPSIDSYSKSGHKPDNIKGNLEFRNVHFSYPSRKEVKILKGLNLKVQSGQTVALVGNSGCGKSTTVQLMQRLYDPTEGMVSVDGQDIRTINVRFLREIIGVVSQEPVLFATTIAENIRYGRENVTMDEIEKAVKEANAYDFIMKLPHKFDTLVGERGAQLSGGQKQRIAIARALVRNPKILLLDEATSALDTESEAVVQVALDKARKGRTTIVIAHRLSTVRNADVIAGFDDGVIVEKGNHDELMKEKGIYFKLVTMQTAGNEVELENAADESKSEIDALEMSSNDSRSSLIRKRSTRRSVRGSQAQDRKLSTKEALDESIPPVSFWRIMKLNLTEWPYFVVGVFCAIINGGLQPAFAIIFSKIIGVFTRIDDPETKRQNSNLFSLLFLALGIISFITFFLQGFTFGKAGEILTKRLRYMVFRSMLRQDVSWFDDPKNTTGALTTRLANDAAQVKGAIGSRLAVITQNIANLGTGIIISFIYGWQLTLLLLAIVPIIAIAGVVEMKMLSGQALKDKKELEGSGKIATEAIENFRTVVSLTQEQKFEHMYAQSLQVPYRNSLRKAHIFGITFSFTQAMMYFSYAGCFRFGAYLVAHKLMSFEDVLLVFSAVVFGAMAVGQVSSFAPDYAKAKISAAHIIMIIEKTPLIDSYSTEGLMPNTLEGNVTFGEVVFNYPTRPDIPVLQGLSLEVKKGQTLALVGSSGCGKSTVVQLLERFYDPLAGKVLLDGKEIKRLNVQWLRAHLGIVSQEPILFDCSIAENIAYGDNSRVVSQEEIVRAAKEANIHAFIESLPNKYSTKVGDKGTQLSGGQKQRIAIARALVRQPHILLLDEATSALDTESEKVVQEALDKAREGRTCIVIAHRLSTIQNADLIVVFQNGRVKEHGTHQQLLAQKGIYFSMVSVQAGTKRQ
BCRP, sequence (Q9UNQ0 whole entry): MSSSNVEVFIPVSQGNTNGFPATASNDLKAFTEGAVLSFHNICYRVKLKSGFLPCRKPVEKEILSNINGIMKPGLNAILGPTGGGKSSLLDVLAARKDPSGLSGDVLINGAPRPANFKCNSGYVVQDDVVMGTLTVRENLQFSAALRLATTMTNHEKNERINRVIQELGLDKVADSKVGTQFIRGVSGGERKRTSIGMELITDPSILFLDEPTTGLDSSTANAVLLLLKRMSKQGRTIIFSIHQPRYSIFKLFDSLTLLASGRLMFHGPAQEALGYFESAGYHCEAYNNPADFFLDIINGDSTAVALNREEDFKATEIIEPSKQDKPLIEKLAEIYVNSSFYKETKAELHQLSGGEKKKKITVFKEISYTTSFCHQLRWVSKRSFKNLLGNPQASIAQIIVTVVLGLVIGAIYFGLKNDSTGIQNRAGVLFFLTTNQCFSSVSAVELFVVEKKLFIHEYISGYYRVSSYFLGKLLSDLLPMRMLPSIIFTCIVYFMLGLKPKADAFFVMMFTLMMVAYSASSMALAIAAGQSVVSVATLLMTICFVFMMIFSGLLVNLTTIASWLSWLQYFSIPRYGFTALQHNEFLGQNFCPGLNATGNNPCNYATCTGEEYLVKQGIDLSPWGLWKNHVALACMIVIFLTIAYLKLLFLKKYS
PARP1, sequence (P09874 whole entry): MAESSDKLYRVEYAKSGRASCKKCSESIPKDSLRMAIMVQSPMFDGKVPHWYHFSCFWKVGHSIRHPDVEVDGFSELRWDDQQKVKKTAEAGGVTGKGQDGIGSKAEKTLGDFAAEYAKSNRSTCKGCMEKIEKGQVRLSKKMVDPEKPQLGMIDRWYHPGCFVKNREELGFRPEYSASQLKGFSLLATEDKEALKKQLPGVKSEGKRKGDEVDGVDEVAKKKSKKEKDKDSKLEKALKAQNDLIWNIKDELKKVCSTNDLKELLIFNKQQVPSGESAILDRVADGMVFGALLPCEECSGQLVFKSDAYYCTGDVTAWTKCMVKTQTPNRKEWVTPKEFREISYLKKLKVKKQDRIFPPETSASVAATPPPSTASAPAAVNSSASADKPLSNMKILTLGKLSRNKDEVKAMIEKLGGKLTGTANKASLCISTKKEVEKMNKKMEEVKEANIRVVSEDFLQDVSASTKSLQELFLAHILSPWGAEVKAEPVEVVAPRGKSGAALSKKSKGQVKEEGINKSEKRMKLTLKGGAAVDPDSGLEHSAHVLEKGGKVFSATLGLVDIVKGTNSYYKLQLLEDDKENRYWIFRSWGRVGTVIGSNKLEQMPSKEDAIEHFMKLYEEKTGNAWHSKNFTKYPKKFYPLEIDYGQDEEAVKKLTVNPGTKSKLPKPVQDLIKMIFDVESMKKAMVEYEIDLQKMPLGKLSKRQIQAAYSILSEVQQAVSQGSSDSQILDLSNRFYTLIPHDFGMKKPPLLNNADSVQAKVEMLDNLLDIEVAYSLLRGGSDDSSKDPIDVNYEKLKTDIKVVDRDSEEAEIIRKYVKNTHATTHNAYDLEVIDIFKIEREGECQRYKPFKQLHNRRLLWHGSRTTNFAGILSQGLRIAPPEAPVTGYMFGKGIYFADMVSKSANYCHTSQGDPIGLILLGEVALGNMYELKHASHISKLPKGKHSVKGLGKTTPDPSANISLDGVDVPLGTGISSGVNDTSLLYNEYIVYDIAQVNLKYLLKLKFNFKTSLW

Turning to `CNC(=O)c1ccc(N2CCN(Cc3ccc4c([nH]c(=O)c5ccnn54)c3F)CC2)c(F)n1` [Example 1, 6-fluoro-5-[4-({6-fluoro-4-oxo-5H-pyrazolo[1,5-a]quinoxalin-7-yl}methyl)piperazin-1-yl]-N-methylpyridine-2-carboxamide], the EC50 in [1] was above 30000 nM; in [4], 4.1 nM; in [5], 2.9 nM. Further, the Papp A→B at 2 h, 10 μM in data set [2] is 21.7 ×10⁻⁶ cm/s; in data set [3], 15.9 ×10⁻⁶ cm/s. For the same molecule, the Papp B→A at 2 h, 10 μM was 20.4 ×10⁻⁶ cm/s in data set [2] and 29.6 ×10⁻⁶ cm/s in [3]. Besides, the efflux ratio at 2 h, 10 μM in data set [2] stood at 0.95; in [3] it was 1.87.

For the molecule `CNC(=O)c1ccc(N2CCN(Cc3ccc4c5c(c(=O)[nH]c4c3F)CCO5)CC2)c(F)n1` [Example 9, 6-fluoro-5-[4-({6-fluoro-4-oxo-2H,3H,5H-furo[3,2-c]quinolin-7-yl}methyl)piperazin-1-yl]-N-methylpyridine-2-carboxamide], the 50% effective concentration (EC50) in [1] was above 30000 nM; in [4], 3.2 nM; in [5], 1.6 nM. In addition, the values for the Papp A→B at 2 h, 10 μM in [2] and in [3] were 26.7 ×10⁻⁶ cm/s and 19.4 ×10⁻⁶ cm/s, respectively. Moreover, the results for the Papp B→A at 2 h, 10 μM in data set [2] and in [3] were 24.3 ×10⁻⁶ cm/s and 31.4 ×10⁻⁶ cm/s, respectively. In addition, the “HLM Clh” value in data set [6] was below 4 mL/min/kg. Also, the “HHEP Clh” value in [7] is below 3.3 mL/min/kg.

In the case of `[2H]C([2H])([2H])NC(=O)c1ccc(N2CCN(Cc3ccc4c([nH]c(=O)c5ccnn54)c3F)CC2)c(F)n1` [Example 18], the EC50 in data set [1] is above 30000 nM; in data set [4], 1.9 nM; in data set [5], 1.2 nM. Also, the Papp A→B at 2 h, 10 μM in data set [2] came out at 21.1 ×10⁻⁶ cm/s; in [3] it was 15.2 ×10⁻⁶ cm/s. The Papp B→A at 2 h, 10 μM came out at 18.2 ×10⁻⁶ cm/s in data set [2] and 22.7 ×10⁻⁶ cm/s in data set [3]. Moreover, the results for the efflux ratio at 2 h, 10 μM in data set [2] and in data set [3] were 0.87 and 1.5, respectively. Moreover, the figures for the IC50 in data set [8] and in data set [9] were 6.2 nM and above 100000 nM, respectively.
